# Reference: patent US8536196B2, “Substituted 1,3-dioxanes useful as PPAR modulators” (Evolva SA, priority 2007, dated 2013)
# Columns and labels:
# hRXRαLBD = molecular target: T1, hRXRαLBD (Homo sapiens, UniProt P19793); assay: RXR transactivation assay; assay type: cell-based
# T1 construct: expressed in transfected cells
# T1 sequence (P19793 227-458 limits assumed): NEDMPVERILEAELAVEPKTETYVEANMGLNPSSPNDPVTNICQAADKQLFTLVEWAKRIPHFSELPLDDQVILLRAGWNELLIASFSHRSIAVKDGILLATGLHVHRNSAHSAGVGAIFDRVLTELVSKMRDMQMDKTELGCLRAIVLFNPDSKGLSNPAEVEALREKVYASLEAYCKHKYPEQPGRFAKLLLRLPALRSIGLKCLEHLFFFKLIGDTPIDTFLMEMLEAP
# Protocol: This example describes a retinoic acid X receptor transactivation assay.
# Compounds are tested for their ability to transactivate RXR essentially as described in Example 22.
# human pre-adipocytes = assay: Adipocyte differentiation assay using human pre-adipocytes; assay type: cell-based
compound,measurement,setting,value
"O=C(O)CC/C=C\CC1COC(c2ccccc2Cl)OC1c1ccccc1O (racemic) [SN1, (Z)-6-(-2-(2-chlorophenyl)-4-(2-hydroxyphenyl)-1,3-dioxan-5-yl)hex-4-enoic acid]",increase in RXR transactivation,hRXRαLBD,no transactivation
same,"red staining (Oil Red O), human pre-adipocytes",human pre-adipocytes,"very little red staining, similar to DMSO"
